Data from patent publication US20240238422A1 (Osprey Biopharmaceuticals, Inc., priority 2021, published 2024).

How the values were obtained:
[1] = molecular target: T1, human CD22 (Homo sapiens, UniProt P20273); assay: SPR binding of synthetic Siglec ligands to human CD22 ectodomain (Biacore 8K+); settings: for Kd: SPR, alkyne-terminating precursors of the PFP linkers, read-out: Human Siglec-2 Binding Affinity; for Human Siglec-2 Binding Affinity: grade in words for the conjugatable Siglec ligand-linker
T1 construct: Fc (human CD22-Fc fusion); purchased R&D Systems AV11968-050
Description: (§1) The following ligands were evaluated for mouse and human CD22 binding: 1) BPC-Neu5Gc PEG (Cpd. No. 26463), 2) BPC-Neu5Gc GAL (Cpd. No. 26339), 3) MPB-Neu5Ac PEG (Cpd. No. 26334), 4) MPB-Neu5Ac GAL (Cpd. No. 26409), 5) Neu5Gc PEG (Cpd. No. 26591). All tested compounds are alkyne-terminating precursors of PFP-terminating, conjugatable Siglec Linker structures used in conjugates in the following examples.
(§2) Binding assays for synthetic CD22 ligand binding to CD22 receptor ectodomain were run on a Biacore 8K+ instrument (Cytiva). Surface preparation for CD22 conjugates binding to human or mouse CD22 protein consisted of two steps, covalent immobilization of streptavidin followed by capture of Avi-tagged and biotinylated human CD22-Fc fusion (R&D Systems, Cat #AV11968-050) and a mono-Fc fusion of mouse CD22. Using standard amine coupling protocols, Streptavidin (Invitrogen, Cat #: 434301) was immobilized to a Cytiva CM5 chip (Cytiva, Cat #BR100530) by injecting at 100 ug/mL in Sodium Acetate, pH 4.5 (Cytiva, Cat #BR100350) on both flow cells, yielding a final response of 2500 RU. Capture of biotinylated mono Fc human CD22 was performed on channels 1-4 and mouse CD22 on channels 5-8 on the active flow cell (2) and the reference flow cell (1) was kept as unmodified streptavidin to account for any non-specific binding. Human CD22 or mouse CD22 (mono-Fc fusion, 5 μg/mL) was injected on the active flow cell (2) for 90 seconds at 5 μL/min, yielding about 210 RU of captured constructs.
(§3) Binding experiments of Siglec-ligand conjugated proteins were performed on the surfaces prepared above in HBS-EP+ (10 mM HEPES, 150 mM NaCl, 3 mM EDTA, 0.05% Tween-20, pH 7.5) as the running buffer. Conjugates were serially diluted 1:1 in running buffer from 1 μM to 31.25 nM and injected over both the reference and active flow cells for 90 seconds at 30 μL/min. The conjugates were then allowed to dissociate from the surface for 300 seconds. No regeneration was required as the conjugates completely dissociated from the surface after 30 seconds.

[2] = molecular target: T2, mouse CD22 (Mus musculus, UniProt P35329); assay: SPR binding of synthetic Siglec ligands to mouse CD22 ectodomain (Biacore 8K+); settings: for Kd: SPR, alkyne-terminating precursors of the PFP linkers, read-out: Mouse Siglec-2 Binding Affinity; for Mouse Siglec-2 Binding Affinity: grade in words for the conjugatable Siglec ligand-linker
T2 construct: synthetic Siglec ligands for recombinant human and mouse CD22 ectodomains
T2 sequence (P35329 22-708 limits assumed): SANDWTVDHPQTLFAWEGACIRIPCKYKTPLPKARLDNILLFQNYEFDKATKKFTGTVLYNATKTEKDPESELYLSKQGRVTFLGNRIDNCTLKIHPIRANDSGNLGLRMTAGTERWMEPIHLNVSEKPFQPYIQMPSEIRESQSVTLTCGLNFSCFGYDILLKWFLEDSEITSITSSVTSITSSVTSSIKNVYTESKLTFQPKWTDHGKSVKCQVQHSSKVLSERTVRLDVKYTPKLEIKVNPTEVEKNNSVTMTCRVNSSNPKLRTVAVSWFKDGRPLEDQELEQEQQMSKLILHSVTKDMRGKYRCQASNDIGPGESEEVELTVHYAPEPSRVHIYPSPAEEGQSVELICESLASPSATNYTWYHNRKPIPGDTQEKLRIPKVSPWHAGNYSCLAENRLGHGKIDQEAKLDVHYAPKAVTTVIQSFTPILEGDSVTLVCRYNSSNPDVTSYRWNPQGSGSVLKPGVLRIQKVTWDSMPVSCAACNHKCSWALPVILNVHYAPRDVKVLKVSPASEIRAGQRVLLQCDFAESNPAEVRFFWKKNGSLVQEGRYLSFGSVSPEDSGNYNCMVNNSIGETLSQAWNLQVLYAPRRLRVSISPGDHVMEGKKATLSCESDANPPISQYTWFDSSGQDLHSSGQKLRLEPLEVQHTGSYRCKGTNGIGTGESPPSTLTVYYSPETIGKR
Description: as §1, §2, §3

T1 sequence (P20273 20-687 limits assumed): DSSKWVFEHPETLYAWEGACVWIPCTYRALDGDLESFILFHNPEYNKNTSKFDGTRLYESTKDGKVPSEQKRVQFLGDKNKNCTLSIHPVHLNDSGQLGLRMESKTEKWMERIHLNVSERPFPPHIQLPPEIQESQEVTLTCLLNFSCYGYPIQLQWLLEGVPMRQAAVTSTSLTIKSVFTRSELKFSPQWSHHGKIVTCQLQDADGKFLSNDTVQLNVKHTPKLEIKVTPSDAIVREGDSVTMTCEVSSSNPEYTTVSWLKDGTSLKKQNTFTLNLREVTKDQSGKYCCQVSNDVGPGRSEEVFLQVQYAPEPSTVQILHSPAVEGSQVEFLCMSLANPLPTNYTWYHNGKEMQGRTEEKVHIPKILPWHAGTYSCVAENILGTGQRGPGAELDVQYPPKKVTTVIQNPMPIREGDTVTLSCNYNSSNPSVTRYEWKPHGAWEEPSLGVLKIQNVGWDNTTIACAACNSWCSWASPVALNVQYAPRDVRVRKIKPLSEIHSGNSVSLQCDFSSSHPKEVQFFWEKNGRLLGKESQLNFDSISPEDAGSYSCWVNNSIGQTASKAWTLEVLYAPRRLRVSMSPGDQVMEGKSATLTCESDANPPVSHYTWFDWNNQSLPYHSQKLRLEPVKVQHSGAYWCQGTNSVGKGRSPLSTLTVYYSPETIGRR

C#CCCO[C@@H]1O[C@H](CO[C@]2(C(=O)O)C[C@H](O)[C@@H](NC(=O)CO)[C@H]([C@H](O)[C@H](O)CNC(=O)Cc3ccc(-c4ccccc4)cc3)O2)[C@H](O)[C@H](O)[C@H]1O
Kd [1]: 2500 nM
Kd [2]: 17200 nM

O=C(CCOCCOCCn1cc(CCO[C@@H]2O[C@H](CO[C@]3(C(=O)O)C[C@H](O)[C@@H](NC(=O)CO)[C@H]([C@H](O)[C@H](O)CNC(=O)Cc4ccc(-c5ccccc5)cc4)O3)[C@H](O)[C@H](O)[C@H]2O)nn1)NCCCCC(NC(=O)CCCNC(=O)CCOCCOCCn1cc(CCO[C@@H]2O[C@H](CO[C@]3(C(=O)O)C[C@H](O)[C@@H](NC(=O)CO)[C@H]([C@H](O)[C@H](O)CNC(=O)Cc4ccc(-c5ccccc5)cc4)O3)[C@H](O)[C@H](O)[C@H]2O)nn1)C(=O)NCCOCCOCCOCCOCCC(=O)Oc1c(F)c(F)c(F)c(F)c1F (mixture of isomers) [Cpd. No. 26416]
Human Siglec-2 Binding Affinity [1]: Strong
Mouse Siglec-2 Binding Affinity [2]: Strong

CC(=O)N[C@H]1[C@H]([C@H](O)[C@H](O)CNC(=O)c2cccc(Oc3ccccc3)c2)O[C@@](OC[C@H]2O[C@@H](OCCc3cn(CCOCCOCCC(=O)NCCCC[C@H](NC(=O)CCCNC(=O)CCOCCOCCn4cc(CCO[C@@H]5O[C@H](CO[C@]6(C(=O)O)C[C@H](O)[C@@H](NC(C)=O)[C@H]([C@H](O)[C@H](O)CNC(=O)c7cccc(Oc8ccccc8)c7)O6)[C@H](O)[C@H](O)[C@H]5O)nn4)C(=O)NCCOCCOCCOCCOCCC(=O)Oc4c(F)c(F)c(F)c(F)c4F)nn3)[C@H](O)[C@@H](O)[C@H]2O)(C(=O)O)C[C@@H]1O (mixture of isomers) [Cpd. No. 26468]
Human Siglec-2 Binding Affinity [1]: Strong
Mouse Siglec-2 Binding Affinity [2]: V. weak

CC(=O)N[C@H]1[C@H]([C@H](O)[C@H](O)CNC(=O)c2cccc(Oc3ccccc3)c2)O[C@@](OCCOCCOCc2cn(CCOCCOCCOCCOCCC(=O)Oc3c(F)c(F)c(F)c(F)c3F)nn2)(C(=O)O)C[C@@H]1O [Cpd. No. 24836, (2R,4S,5R,6R)-5-acetamido-6-((1R,2R)-1,2-dihydroxy-3-(3-phenoxybenzamido)propyl)-4-hydroxy-2-(2-(2-((1-(15-oxo-15-(perfluorophenoxy)-3,6,9,12-tetraoxapentadecyl)-1H-1,2,3-triazol-4-yl)methoxy)ethoxy)ethoxy)tetrahydro-2H-pyran-2-carboxylic acid]
Human Siglec-2 Binding Affinity [1]: Strong
Mouse Siglec-2 Binding Affinity [2]: V. weak

CC(=O)N[C@H]1[C@H]([C@H](O)[C@H](O)CNC(=O)c2cccc(Oc3ccccc3)c2)O[C@@](OC[C@H]2O[C@@H](OCCc3cn(CCOCCOCCOCCOCCC(=O)Oc4c(F)c(F)c(F)c(F)c4F)nn3)[C@H](O)[C@@H](O)[C@H]2O)(C(=O)O)C[C@@H]1O [Cpd. No. 24906, (2R,4S,5R,6R)-5-acetamido-6-((1R,2R)-1,2-dihydroxy-3-(3-phenoxybenzamido)propyl)-4-hydroxy-2-(((2R,3R,4S,5R,6R)-3,4,5-trihydroxy-6-(2-(1-(15-oxo-15-(perfluorophenoxy)-3,6,9,12-tetraoxapentadecyl)-1H-1,2,3-triazol-4-yl)ethoxy)tetrahydro-2H-pyran-2-yl)methoxy)tetrahydro-2H-pyran-2-carboxylic acid]
Human Siglec-2 Binding Affinity [1]: Strong
Mouse Siglec-2 Binding Affinity [2]: V. weak

O=C(Cc1ccc(-c2ccccc2)cc1)NC[C@@H](O)[C@@H](O)[C@@H]1O[C@@](OCCOCCOCc2cn(CCOCCOCCOCCOCCC(=O)Oc3c(F)c(F)c(F)c(F)c3F)nn2)(C(=O)O)C[C@H](O)[C@H]1NC(=O)CO [Cpd. No. 26288, (2R,4S,5R,6R)-6-((1R,2R)-3-(2-([1,1′-biphenyl]-4-yl)acetamido)-1,2-dihydroxypropyl)-4-hydroxy-5-(2-hydroxyacetamido)-2-(2-(2-((1-(15-oxo-15-(perfluorophenoxy)-3,6,9,12-tetraoxapentadecyl)-1H-1,2,3-triazol-4-yl)methoxy)ethoxy)ethoxy)tetrahydro-2H-pyran-2-carboxylic acid]
Human Siglec-2 Binding Affinity [1]: Strong
Mouse Siglec-2 Binding Affinity [2]: Strong

CC(=O)N[C@H]1[C@H]([C@H](O)[C@H](O)CNC(=O)c2cccc(Oc3ccccc3)c2)O[C@@](OCCOCc2cn(CCOCCOCCC(=O)NCCCC[C@H](NC(=O)CCCNC(=O)CCOCCOCCn3cc(COCCO[C@]4(C(=O)O)C[C@H](O)[C@@H](NC(C)=O)[C@H]([C@H](O)[C@H](O)CNC(=O)c5cccc(Oc6ccccc6)c5)O4)nn3)C(=O)NCCOCCOCCOCCOCCC(=O)Oc3c(F)c(F)c(F)c(F)c3F)nn2)(C(=O)O)C[C@@H]1O [Cpd. No. 26289, (2R,2′R,4S,4′S,5R,5′R,6R,6′R)-2,2′-(((((((S)-9,14,22-trioxo-16-((15-oxo-15-(perfluorophenoxy)-3,6,9,12-tetraoxapentadecyl)carbamoyl)-3,6,25,28-tetraoxa-10,15,21-triazatriacontane-1,30-diyl)bis(1H-1,2,3-triazole-1,4-diyl))bis(methylene))bis(oxy))bis(ethane-2,1-diyl))bis(oxy))bis(5-acetamido-6-((1R,2R)-1,2-dihydroxy-3-(3-phenoxybenzamido)propyl)-4-hydroxytetrahydro-2H-pyran-2-carboxylic acid)]
Human Siglec-2 Binding Affinity [1]: Strong
Mouse Siglec-2 Binding Affinity [2]: V. weak

C#CCOCCOCCO[C@]1(C(=O)O)C[C@H](O)[C@@H](NC(C)=O)[C@H]([C@H](O)[C@H](O)CNC(=O)c2cccc(Oc3ccccc3)c2)O1 [Cpd. No. 26334, (2R,4S,5R,6R)-5-acetamido-6-((1R,2R)-1,2-dihydroxy-3-(3-phenoxybenzamido)propyl)-4-hydroxy-2-(2-(2-(prop-2-yn-1-yloxy)ethoxy)ethoxy)tetrahydro-2H-pyran-2-carboxylic acid]
Kd [1]: 930 nM
Kd [2]: > 100000 nM

C#CCCO[C@@H]1O[C@H](CO[C@]2(C(=O)O)C[C@H](O)[C@@H](NC(C)=O)[C@H]([C@H](O)[C@H](O)CNC(=O)c3cccc(Oc4ccccc4)c3)O2)[C@H](O)[C@H](O)[C@H]1O [Cpd. No. 26409, (2R,4S,5R,6R)-5-acetamido-2-(((2R,3R,4S,5R,6R)-6-(but-3-yn-1-yloxy)-3,4,5-trihydroxytetrahydro-2H-pyran-2-yl)methoxy)-6-((1R,2R)-1,2-dihydroxy-3-(3-phenoxybenzamido)propyl)-4-hydroxytetrahydro-2H-pyran-2-carboxylic acid]
Kd [1]: 1000 nM
Kd [2]: > 100000 nM

O=C(Cc1ccc(-c2ccccc2)cc1)NC[C@@H](O)[C@@H](O)[C@@H]1O[C@@](OC[C@H]2O[C@@H](OCCc3cn(CCOCCOCCOCCOCCC(=O)Oc4c(F)c(F)c(F)c(F)c4F)nn3)[C@H](O)[C@@H](O)[C@H]2O)(C(=O)O)C[C@H](O)[C@H]1NC(=O)CO [Cpd. No. 26415, (2R,4S,5R,6R)-6-((1R,2R)-3-(2-([1,1′-biphenyl]-4-yl)acetamido)-1,2-dihydroxypropyl)-4-hydroxy-5-(2-hydroxyacetamido)-2-(((2R,3R,4S,5R,6R)-3,4,5-trihydroxy-6-(2-(1-(15-oxo-15-(perfluorophenoxy)-3,6,9,12-tetraoxapentadecyl)-1H-1,2,3-triazol-4-yl)ethoxy)tetrahydro-2H-pyran-2-yl)methoxy)tetrahydro-2H-pyran-2-carboxylic acid]
Human Siglec-2 Binding Affinity [1]: Strong
Mouse Siglec-2 Binding Affinity [2]: Strong
